Values joined by “and” are separate entries in the source; they are usually repeats but may differ in a detail not shown here. Equal entries are not always repeated.

The subject of one data set is SD rats. Kind of data set: Repeated-dose toxicity test in rats. The format is in vivo. Conditions: gavage once daily, 14 days, 20 rats. The protocol:
The test substances were suspended in 0.5% methylcellulose solution to prepare suspensions with a concentration of 0.5 mg/mL, 1.5 mg/mL and 3 mg/mL.
Animals: SD rats, 6-8 weeks old, SPF grade, purchased from Beijing Vital River Laboratory Animal Technology Co., Ltd., licensed […] No: SCXK (Beijing) 2006-0009.
The test substances were administrated as a suspension via gavage, and administrating volume was 10 mL/kg. 0.5% methyl cellulose solution was used in the solvent group, and the administrating volume was 10 mL/kg, administered once daily for consecutive 14 days. Animals were observed daily appearance and general behavior changes.

The nature of data set [1]: In vivo pharmacokinetics in rats, gavage (PO). Conditions: male, SD, rat, plasma, 4 mg/kg.
The nature of data set [2]: In vivo pharmacokinetics in rats, intravenous bolus injection (IV). Conditions: 2 mg/kg; for AUC / half-life: male, SD, rat, plasma, iv; for Cl_obs / Vss_obs: rats, IV.
In a further data set the target is mTOR (Homo sapiens (Human), UniProt P42345). In words: mTOR inhibitory activity, Method 1 activity test. The data set is classed as biochemical. The settings on record: 4EBP1 50 nM, ATP 10.8 μM. How it is done: Determination of the Inhibitory Activity of mTOR
(§1) 1. Preparation of test reagents
(1) 1× kinase buffer (50 mM HEPES, pH 7.5, 10 mM MgCl2, 1 mM EGTA, 3 mM MnCl, 0.01% Tween-20, 2 mM DTT);
(2) 4× kinase solution (added mTOR kinase to 1× kinase buffer to provide 4× kinase solution with a final concentration of 2.5 nM);
(3) 2× substrate solution (added the substrates of 4EBP1 and ATP into 1× kinase buffer to provide 2× substrate solution with 4EBP1 final concentration of 50 nM and ATP final concentration of 10.8 μM);
(4) 4× test substance solutions (100× test substance solutions with different concentration gradients were prepared using 100% DMSO, and diluted 25-fold with 1× kinase buffer to give 4× test substance solutions with different concentration gradients)
(5) preparation of test solution (test solution containing EDTA and 4EBP1 phosphorylated antibody was prepared using activity test kit with assay buffer, the final concentration of EDTA was 8 mM, and the final concentration of 4EBP1 phosphorylated antibody was 2 nM)
(§2) 2. 2.5 μL of 4× test solution was added to a 384-well plate in parallel;
(§3) 3. added […] of 4× kinase solution and incubated for 10 min;
4. then added 5 μL of 2× solutions of 4EBP1 and ATP substrates and incubated for 1 h at room temperature;
5. finally, added 10 μL of test solution to quench the reaction, and read after 60 min;
(§4) 6. IC50 value was obtained via curve fitting. Inhibition rate (%)=(sample value−minimum)/(maximum−minimum)×100
Minimum refers to the readings of control wells without enzyme, maximum refers to the readings of DMSO control wells.
(§5) IC50 value was obtained via curve fitting using a soft of Graphpad 5.0.

The next data set addresses PI3Kα (Homo sapiens (Human), UniProt P42336). In words: PI3K inhibitory activity, Method 1 activity test. The format is biochemical. The settings on record: PIP2 50 μM, ATP 25 μM. How it is done:
Determination of the inhibitory activity of PI3K
as §1
(1) 1× kinase buffer (50 mM HEPES, pH 7.5, 3 mM MgCl2, 1 mM EGTA, 100 mM NaCl, 0.03% CHAPS, 2 mM DTT);
(2) 4× kinase solution (added PI3K a kinase to 1× kinase buffer to provide 4× kinase solution with a final concentration of 1.65 nM);
(3) 2× substrate solution (added the substrates of PIP2 and ATP into 1× kinase buffer to provide 2× substrate solution with PIP2 final concentration of 50 μM and ATP final concentration of 25 μM);
(4) 4× test substance solutions (100× test substance solutions with different concentration gradients were prepared using 100% DMSO, and diluted 25-fold with 1× kinase buffer to give 4× test substance solutions with different concentration gradients);
(5) Invitrogen's activity test kit with the test solution was kept stand to room temperature.
as §2, §3
4. then added 5 μL of 2× solutions of PIP2 and ATP substrates and incubated for 1 h at room temperature;
5. finally, added 10 μL of test solution to quench the reaction, and read after 15 min;
as §4
Maximum refers to the readings of control wells without enzyme, minimum refers to the readings of DMSO control wells.
as §5

Chain of PI3Kα (P42336 whole entry): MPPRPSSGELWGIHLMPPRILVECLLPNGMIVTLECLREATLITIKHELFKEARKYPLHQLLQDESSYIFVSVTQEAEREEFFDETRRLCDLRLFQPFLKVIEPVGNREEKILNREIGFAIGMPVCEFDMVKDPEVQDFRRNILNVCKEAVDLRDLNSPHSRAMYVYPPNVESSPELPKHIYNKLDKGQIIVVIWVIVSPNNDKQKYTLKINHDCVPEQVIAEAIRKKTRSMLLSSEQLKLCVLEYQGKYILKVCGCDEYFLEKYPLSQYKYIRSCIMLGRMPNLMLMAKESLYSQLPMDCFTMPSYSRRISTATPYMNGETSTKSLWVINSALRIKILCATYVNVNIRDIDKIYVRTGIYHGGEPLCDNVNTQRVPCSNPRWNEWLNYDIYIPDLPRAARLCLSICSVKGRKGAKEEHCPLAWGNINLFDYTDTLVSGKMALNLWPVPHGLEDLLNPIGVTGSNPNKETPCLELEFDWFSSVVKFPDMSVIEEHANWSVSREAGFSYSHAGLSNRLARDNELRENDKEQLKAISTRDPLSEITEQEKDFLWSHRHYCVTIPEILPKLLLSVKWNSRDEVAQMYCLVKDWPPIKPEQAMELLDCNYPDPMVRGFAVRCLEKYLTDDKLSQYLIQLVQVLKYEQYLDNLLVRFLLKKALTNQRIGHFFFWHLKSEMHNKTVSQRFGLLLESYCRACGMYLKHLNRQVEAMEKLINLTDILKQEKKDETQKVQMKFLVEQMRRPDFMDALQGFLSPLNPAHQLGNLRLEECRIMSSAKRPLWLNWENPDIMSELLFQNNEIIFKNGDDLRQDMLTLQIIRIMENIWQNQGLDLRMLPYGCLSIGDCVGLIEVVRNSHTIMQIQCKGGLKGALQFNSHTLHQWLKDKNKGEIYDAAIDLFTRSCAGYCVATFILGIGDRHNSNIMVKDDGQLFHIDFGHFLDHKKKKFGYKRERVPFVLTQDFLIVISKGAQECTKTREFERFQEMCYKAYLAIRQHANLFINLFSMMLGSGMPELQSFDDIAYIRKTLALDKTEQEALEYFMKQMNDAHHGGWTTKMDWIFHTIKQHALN
Chain of PI3Kα (P27986 whole entry partner): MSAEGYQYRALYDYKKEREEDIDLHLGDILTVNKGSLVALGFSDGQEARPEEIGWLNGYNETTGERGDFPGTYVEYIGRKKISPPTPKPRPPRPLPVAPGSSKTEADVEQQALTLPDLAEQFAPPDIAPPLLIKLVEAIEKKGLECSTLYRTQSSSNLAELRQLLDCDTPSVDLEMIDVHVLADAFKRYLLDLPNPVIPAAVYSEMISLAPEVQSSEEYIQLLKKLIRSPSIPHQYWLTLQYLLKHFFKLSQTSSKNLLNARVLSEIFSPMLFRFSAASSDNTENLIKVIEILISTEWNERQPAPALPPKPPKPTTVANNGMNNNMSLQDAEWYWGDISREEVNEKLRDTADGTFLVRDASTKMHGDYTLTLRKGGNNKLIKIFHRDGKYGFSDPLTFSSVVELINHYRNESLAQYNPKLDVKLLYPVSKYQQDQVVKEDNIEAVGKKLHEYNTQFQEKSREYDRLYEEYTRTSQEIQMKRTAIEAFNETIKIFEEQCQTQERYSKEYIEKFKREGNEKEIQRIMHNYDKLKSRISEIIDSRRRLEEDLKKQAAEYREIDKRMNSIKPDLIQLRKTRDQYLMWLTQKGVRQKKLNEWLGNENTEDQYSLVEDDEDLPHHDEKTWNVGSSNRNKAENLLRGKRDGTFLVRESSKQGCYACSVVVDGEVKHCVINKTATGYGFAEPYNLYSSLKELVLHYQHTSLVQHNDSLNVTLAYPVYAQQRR

For the molecule `Cn1c(=O)n(-c2ccc(C(C)(C)C#N)cc2)c2c3cc(-c4cnc5ccccc5c4)ccc3ncc21` [BEZ-235, reference compound], in the data set on SD rats (high dose 30 mg/kg/day), the “hair loss (animals affected)” value is “three and 3/20”; the “lassitude (animals affected)” value was 0/20; the “loose stools (animals affected)” value was “fifteen and 15/20”. In the data set with SD rats (low dose 5 mg/kg/day), the “hair loss (animals affected)” value is on record as 0/20; the “lassitude (animals affected)” value is reported as 0/20; the “loose stools (animals affected)” value was “six and 6/20”. Also, in the data set with SD rats (middle dose 15 mg/kg/day), the “hair loss (animals affected)” value is listed as 0/20; the “lassitude (animals affected)” value is given as 0/20; the “loose stools (animals affected)” value is “seven and 7/20”. For the same molecule, in data set [1], the AUC is 2180 ng·h/mL, the Cmax stood at 229 ng/mL, the Tmax was 2.83 h and the bioavailability came to 77.4%. The molecule also had a half-life in data set [1] of 4.08 h. In addition, in data set [2], the AUC is 1440 ng·h/mL, the half-life was 3.19 h, the Cl_obs stood at 23 mL/min/kg and the Vss_obs turned out to be 5.93 L/kg.

`COc1ncc(-c2ccc3ncc4c(c3n2)N(c2cccc(C(F)(F)F)c2)C(=O)N(C)C4)cn1` [Compound 13]: the IC50 at mTOR is 0.0303 µM; on PI3Kα it was 0.021 µM.

Take `COc1ccc(-c2ccc3ncc4c(c3n2)N(c2cccc(C(F)(F)F)c2)C(=O)N(C)C4)cn1` [Compound 2]: the figures for the IC50 on mTOR and on PI3Kα were 0.0543 µM and 0.0884 µM, respectively.

On to `CN1CCN(c2ccc(-c3ccc4ncc5c(c4n3)N(c3cccc(C(F)(F)F)c3)C(=O)N(C)C5)cn2)CC1` [Compound 11], for which the IC50 at mTOR turned out to be 0.0312 µM; against PI3Kα, 0.496 µM.

On to `COc1ccc(-c2ccc3ncc4c(c3c2)n(-c2ccc(N3CCNCC3)c(C(F)(F)F)c2)c(=O)n4C)cn1` [BGT-226, reference compound], for which, in data set [1], the AUC amounted to 852 ng·h/mL, the Cmax stood at 61.1 ng/mL, the Tmax amounted to 6 h and the bioavailability was determined as 28%. The molecule also had an IC50 on mTOR of 0.00199 µM. In data set [2], the AUC was 1520 ng·h/mL, the half-life is 4.8 h, the Cl_obs is 21.7 mL/min/kg and the Vss_obs is on record as 8.72 L/kg. In addition, the IC50 at PI3Kα amounted to 0.0419 µM.

With `CN1Cc2cnc3ccc(-c4ccc(C#N)nc4)nc3c2N(c2cccc(C(F)(F)F)c2)C1=O` [Compound 6], the IC50 against mTOR was determined as 0.024 µM; on PI3Kα it was 0.0338 µM.

As to `CSc1ccc(-c2ccc3ncc4c(c3n2)N(c2cccc(C(F)(F)F)c2)C(=O)N(C)C4)cn1` [Compound 8], the half-inhibitory concentration (IC50) was found to be 0.0765 µM against mTOR and 0.26 µM at PI3Kα.

As for `CN1Cc2cnc3ccc(-c4ccc(-n5cccn5)nc4)nc3c2N(c2cccc(C(F)(F)F)c2)C1=O` [Compound 9], the 50% inhibitory concentration (IC50) against mTOR stood at 0.0437 µM; against PI3Kα it was 0.873 µM.

The record behind these values is patent publication US9284315B2, “Three-ring PI3K and/or mTOR inhibitor” (XUANZHU PHARMA CO., LTD., priority 2011, dated 2016).
